Test results reported in the supplement of paper PMC11451515.

Assays:
Settings in all cases: 48 h
P12-Ichikawa [1] = experiment: cell viability relative to DMSO control; higher = less cytotoxic
Summary of the method: (§1)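 Viability values are per-plate percentages of DMSO wells, with background from cell-free wells. Library compounds in DMSO were pin-dosed, in an 11-point threefold series from 47 μM to 0.79 nM, onto NOMO1 or SEM (500 cells/well) or P12-Ichikawa (1000 cells/well) leukemia cells in 1536-well plates (5 μl). Those cells had been adapted for at least four passages in each medium, and CellTiter-Glo One luminescence was read after 48 h at 37°C.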

SEM cells [2] = experiment: as above
Summary of the method: as §1

NOMO1 [3] = experiment: as above
Summary of the method: as §1

P12-Ichikawa [4] = experiment: AUC of viability dose-response curve (% viability x log10 dose units); higher = less sensitive
Summary of the method: (§2)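 Viability of medium-adapted leukemia cells was measured by CellTiter-Glo One luminescence after 48 h at 37°C with library compounds in DMSO. Doses were 11 threefold steps from 47 μM to 0.79 nM, in 1536-well plates at 500 or 1000 cells/well. Signals were normalised per plate to DMSO and cell-free wells and fitted with a four-parameter log-logistic model on log10 dose. Area under the curve was integrated by trapezoidal rule, with curves exceeding full viability scaled and failed quality-control curves removed.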

SEM cells [5] = experiment: as above
Summary of the method: as §2

NOMO1 [6] = experiment: as above
Summary of the method: as §2

CC(Oc1ccc(O)cc1)(P(=O)(O)O)P(=O)(O)O
cell viability [%]
Settings	NOMO1 [3]	P12-Ichikawa [1]	SEM cells [2]
HPLM + 10% dialyzed FBS, 0.000781 µM	94.2	102	108
HPLM + 10% dialyzed FBS, 0.00234 µM	115	101	105
HPLM + 10% dialyzed FBS, 0.00702 µM	91.7	94.9	98.2
HPLM + 10% dialyzed FBS, 0.0211 µM	92.8	100	108
HPLM + 10% dialyzed FBS, 0.0632 µM	99.5	101	109
HPLM + 10% dialyzed FBS, 0.19 µM	93.5	99.2	104
HPLM + 10% dialyzed FBS, 0.569 µM	91.3	90.3	86.1
HPLM + 10% dialyzed FBS, 1.71 µM	85.8	94.9	101
HPLM + 10% dialyzed FBS, 5.12 µM	103	85.3	83.3
HPLM + 10% dialyzed FBS, 15.4 µM	42.6	67.8	65.5
HPLM + 10% dialyzed FBS, 46.1 µM	17.3	46.7	28.5
RPMI 5 mM glucose + 10% FBS, 0.000781 µM	91.6	92.5	107
RPMI 5 mM glucose + 10% FBS, 0.00234 µM	88	97.8	110
RPMI 5 mM glucose + 10% FBS, 0.00702 µM	87.4	95	103
RPMI 5 mM glucose + 10% FBS, 0.0211 µM	83.7	93.7	116
RPMI 5 mM glucose + 10% FBS, 0.0632 µM	94.8	100	109
RPMI 5 mM glucose + 10% FBS, 0.19 µM	101	98.2	96.2
RPMI 5 mM glucose + 10% FBS, 0.569 µM	90.4	82.2	92.3
RPMI 5 mM glucose + 10% FBS, 1.71 µM	85.7	87.2	105
RPMI 5 mM glucose + 10% FBS, 5.12 µM	78.5	81.5	83.1
RPMI 5 mM glucose + 10% FBS, 15.4 µM	73.7	42.8	48.4
RPMI 5 mM glucose + 10% FBS, 46.1 µM	14.6	33.6	25.1
RPMI 5 mM glucose + 10% dialyzed FBS, 0.000781 µM	94.8	97.1	98.8
RPMI 5 mM glucose + 10% dialyzed FBS, 0.00234 µM	100	97.5	85.7
RPMI 5 mM glucose + 10% dialyzed FBS, 0.00702 µM	87.9	88.6	103
RPMI 5 mM glucose + 10% dialyzed FBS, 0.0211 µM	93	98.4	97.9
RPMI 5 mM glucose + 10% dialyzed FBS, 0.0632 µM	84.9	107	113
RPMI 5 mM glucose + 10% dialyzed FBS, 0.19 µM	95.8	101	110
RPMI 5 mM glucose + 10% dialyzed FBS, 0.569 µM	92	90.7	90.1
RPMI 5 mM glucose + 10% dialyzed FBS, 1.71 µM	91	93.1	96.3
RPMI 5 mM glucose + 10% dialyzed FBS, 5.12 µM	83.9	87.6	74.9
RPMI 5 mM glucose + 10% dialyzed FBS, 15.4 µM	64.8	47.2	55.1
RPMI 5 mM glucose + 10% dialyzed FBS, 46.1 µM	14.4	34.6	28.6

AUC of viability dose-response curve
Settings	NOMO1 [6]	P12-Ichikawa [4]	SEM cells [5]
HPLM + 10% dialyzed FBS	415	434	427
RPMI 5 mM glucose + 10% FBS	399	401	420
RPMI 5 mM glucose + 10% dialyzed FBS	405	418	421

CC1OC(OC/2=C(/OC3=C(C(=CC(=C3)O)O)C2=O)C4=CC=C(O)C=C4)C(O)C(OC(C)=O)C1OC(C)=O (stereo not drawn)
cell viability [%]
Settings	NOMO1 [3]	P12-Ichikawa [1]	SEM cells [2]
HPLM + 10% dialyzed FBS, 0.000781 µM	119	112	117
HPLM + 10% dialyzed FBS, 0.00234 µM	109	118	120
HPLM + 10% dialyzed FBS, 0.00702 µM	137	111	116
HPLM + 10% dialyzed FBS, 0.0211 µM	130	116	113
HPLM + 10% dialyzed FBS, 0.0632 µM	111	113	105
HPLM + 10% dialyzed FBS, 0.19 µM	110	108	112
HPLM + 10% dialyzed FBS, 0.569 µM	112	108	106
HPLM + 10% dialyzed FBS, 1.71 µM	112	107	113
HPLM + 10% dialyzed FBS, 5.12 µM	120	101	106
HPLM + 10% dialyzed FBS, 15.4 µM	101	103	102
HPLM + 10% dialyzed FBS, 46.1 µM	78.9	100	77.7
RPMI 5 mM glucose + 10% FBS, 0.000781 µM	120	108	–
RPMI 5 mM glucose + 10% FBS, 0.00234 µM	116	114	–
RPMI 5 mM glucose + 10% FBS, 0.00702 µM	110	115	–
RPMI 5 mM glucose + 10% FBS, 0.0211 µM	100	112	–
RPMI 5 mM glucose + 10% FBS, 0.0632 µM	117	120	–
RPMI 5 mM glucose + 10% FBS, 0.19 µM	111	117	–
RPMI 5 mM glucose + 10% FBS, 0.569 µM	96.8	103	–
RPMI 5 mM glucose + 10% FBS, 1.71 µM	96.9	108	–
RPMI 5 mM glucose + 10% FBS, 5.12 µM	103	105	–
RPMI 5 mM glucose + 10% FBS, 15.4 µM	94.3	96.4	–
RPMI 5 mM glucose + 10% FBS, 46.1 µM	68.9	103	–
RPMI 5 mM glucose + 10% dialyzed FBS, 0.000781 µM	96.7	114	100
RPMI 5 mM glucose + 10% dialyzed FBS, 0.00234 µM	108	119	101
RPMI 5 mM glucose + 10% dialyzed FBS, 0.00702 µM	109	117	114
RPMI 5 mM glucose + 10% dialyzed FBS, 0.0211 µM	111	115	102
RPMI 5 mM glucose + 10% dialyzed FBS, 0.0632 µM	112	116	110
RPMI 5 mM glucose + 10% dialyzed FBS, 0.19 µM	114	114	103
RPMI 5 mM glucose + 10% dialyzed FBS, 0.569 µM	118	109	98.1
RPMI 5 mM glucose + 10% dialyzed FBS, 1.71 µM	104	114	95.5
RPMI 5 mM glucose + 10% dialyzed FBS, 5.12 µM	111	111	108
RPMI 5 mM glucose + 10% dialyzed FBS, 15.4 µM	99.2	103	90.5
RPMI 5 mM glucose + 10% dialyzed FBS, 46.1 µM	77.2	104	77.1

AUC of viability dose-response curve
Settings	NOMO1 [6]	P12-Ichikawa [4]	SEM cells [5]
HPLM + 10% dialyzed FBS	440	454	463
RPMI 5 mM glucose + 10% FBS	430	455	367
RPMI 5 mM glucose + 10% dialyzed FBS	466	460	465

CCOc1ccccc1OCCNC(C)Cc1ccc(OC)c([S+](N)(=O)[O-])c1 (stereo not drawn)
cell viability [%]
Settings	NOMO1 [3]	P12-Ichikawa [1]	SEM cells [2]
HPLM + 10% dialyzed FBS, 0.000781 µM	103	88.4	87.1
HPLM + 10% dialyzed FBS, 0.00234 µM	105	104	82.9
HPLM + 10% dialyzed FBS, 0.00702 µM	96.8	113	101
HPLM + 10% dialyzed FBS, 0.0211 µM	121	109	103
HPLM + 10% dialyzed FBS, 0.0632 µM	129	103	116
HPLM + 10% dialyzed FBS, 0.19 µM	119	111	101
HPLM + 10% dialyzed FBS, 0.569 µM	120	114	125
HPLM + 10% dialyzed FBS, 1.71 µM	114	105	103
HPLM + 10% dialyzed FBS, 5.12 µM	109	104	119
HPLM + 10% dialyzed FBS, 15.4 µM	115	108	90.9
HPLM + 10% dialyzed FBS, 46.1 µM	102	107	85.8
RPMI 5 mM glucose + 10% FBS, 0.000781 µM	98.8	104	93.4
RPMI 5 mM glucose + 10% FBS, 0.00234 µM	110	111	85.9
RPMI 5 mM glucose + 10% FBS, 0.00702 µM	115	111	101
RPMI 5 mM glucose + 10% FBS, 0.0211 µM	117	110	118
RPMI 5 mM glucose + 10% FBS, 0.0632 µM	105	114	104
RPMI 5 mM glucose + 10% FBS, 0.19 µM	112	106	106
RPMI 5 mM glucose + 10% FBS, 0.569 µM	102	114	115
RPMI 5 mM glucose + 10% FBS, 1.71 µM	101	114	114
RPMI 5 mM glucose + 10% FBS, 5.12 µM	109	117	107
RPMI 5 mM glucose + 10% FBS, 15.4 µM	102	117	97.6
RPMI 5 mM glucose + 10% FBS, 46.1 µM	101	114	105
RPMI 5 mM glucose + 10% dialyzed FBS, 0.000781 µM	90.1	82.8	112
RPMI 5 mM glucose + 10% dialyzed FBS, 0.00234 µM	108	103	88.9
RPMI 5 mM glucose + 10% dialyzed FBS, 0.00702 µM	110	101	115
RPMI 5 mM glucose + 10% dialyzed FBS, 0.0211 µM	112	104	126
RPMI 5 mM glucose + 10% dialyzed FBS, 0.0632 µM	111	103	115
RPMI 5 mM glucose + 10% dialyzed FBS, 0.19 µM	108	95.8	109
RPMI 5 mM glucose + 10% dialyzed FBS, 0.569 µM	109	103	130
RPMI 5 mM glucose + 10% dialyzed FBS, 1.71 µM	101	112	129
RPMI 5 mM glucose + 10% dialyzed FBS, 5.12 µM	117	110	108
RPMI 5 mM glucose + 10% dialyzed FBS, 15.4 µM	104	109	127
RPMI 5 mM glucose + 10% dialyzed FBS, 46.1 µM	105	102	114

AUC of viability dose-response curve
Settings	NOMO1 [6]	P12-Ichikawa [4]	SEM cells [5]
HPLM + 10% dialyzed FBS	468	471	459
RPMI 5 mM glucose + 10% FBS	461	462	462
RPMI 5 mM glucose + 10% dialyzed FBS	466	471	464
